# Data from patent publication US20220290103A1, “METHODS AND COMPOSITIONS USING AUXOTROPHIC REGULATABLE CELLS” (AUXOLYTIC LTD, priority 2019, published 2022).
# B1: UMPS-7: sgRNA targeting exon 1 of UMPS, SEQ ID NO: 1; target sequence + PAM SEQ ID NO: 5 (nucleic acid)
# guide: GCCCCGCAGAUCGAUGUAGAGUUUUAGAGCUAGAAAUAGCAAGUUAAAAUAAGGCUAGUCCGUUAUCAACUUGAAAAAGUGGCACCGAGUCGGUGCUUUU
# modifications: listed as RNA, chemistry not given here
# How the values were obtained:
# Mock T cells = test: 5-FOA selection, cell counts after 4 days; assay type: cell-based, human; details: for Average number of cells per volume unit: grown in 5-FOA 4 days, UMP + Urid; for Average of cells per volume unit: grown in 5-FOA without serum
# Experimental: (§1) 5-FOA selects for uracil auxotrophic cells in other organisms (e.g. Boeke et al. 1984, Mol. Gen. Genet. 197(2):345-6), which is hereby incorporated by reference in its entirety). To investigate the potential utility of 5-FOA for the selection of uracil auxotrophs among human cells, the UMPS gene was targeted in human T cells by Cas9-gRNA complex electroporation followed by recovery (as shown in Example 2) followed by an assay of resistance to 5-FOA treatment (FIG. 3A). Cells were grown in 5-FOA and a variety of combinations of serum and uracil sources for 4 days before cell counting was performed.
# UMPS-7 targeted T cells = test: 5-FOA selection, cell counts after 4 days; assay type: cell-based, human; details: for Average number of cells per volume unit: UMPS-7, grown in 5-FOA 4 days, UMP + Urid; for Average of cells per volume unit: UMPS-7, grown in 5-FOA without serum; for Survival in 5-FOA compared to control: both mock treated and UMPS targeted cells
# Experimental: as §1
# [1] = system: UMPS^KO/KO/GFP^+ K562 cells mixed with UMPS^WT/WT/GFP-negative K562 cells; test: 5-FOA resistance in mixed culture; assay type: cell-based, human
# Experimental: To determine the resistance of UMPS knockout cells to 5-FOA the purified UMPS^KO/KO/GFP^+ K562 cells were mixed at an equal ratio with UMPS^WT/WT/GFP-negative K562 cells. The cells were cultured in the presence of Uridine and different concentrations of 5-FOA (FIG. 6F).
# [2] = system: UMPS-KO T cells mixed with wild-type T cells; test: 5-FOA selection in mixed population of T cells, FACS; assay type: cell-based, human
# Text: To evaluate the possibility to select for UMPS^KO/KO cells with 5-FOA, the sorted cells were mixed with wild-type cells, which were labeled with different tracking dyes, and cultured in the presence or absence of 5-FOA. In part of the samples, 5-FOA was only added on the first day (Day 0) while in another group it was supplemented daily. Table 30 and FIG. 7C show the percent (%) of the UMPS-KO T cells (labelled with eFluor670) over time when culturing with or without 5-FOA.
# In fact, FACS analysis of a culture of a mixed population of UMPS knockout and wild-type T cells with 5-FOA. UMPS-KO T cells were labeled with eFluor670, and wild-type cells were labeled with carboxyfluorescein succinimidyl ester (CFSE). […] On Day 0 in the control group not treated with 5-FOA, 47.7% of the cells were UMPS-KO T cells, and 52.1% were wild-type cells. On Day 3 in the group with 5-FOA supplemented daily, 74.0% of the cells were UMPS-KO T cells, while 25.8% were wild-type cells. On Day 3 in the control group not treated with 5-FOA, 43.1% of the cells were UMPS-KO T cells, and 56.4% were wild-type cells.
# UMPS^WT/WT cells (GFP−) = test: 5-FOA resistance in co-culture, FACS; assay type: cell-based, human; details: all tested 5-FOA concentrations
# Text: (§2) To assess resistance to 5-FOA, the UMPS-KO hESCs were genetically engineered to express GFP from an expression cassette integrated into a safe-harbor locus for easier identification in co-culture with UMPS-WT cells.
# (§3) These UMPS^KO/KO hESCs were mixed with UMPS^WT/WT cells that were not expressing GFP and followed up by fluorescence-activated cell sorting (FACS) analysis in the presence of different concentrations of 5-FOA. Table 16 provides counts of viable GFP+ and GFP− cells after culture with different 5-FOA concentrations.
# UMPS^KO/KO hESCs (GFP+) = test: 5-FOA resistance in co-culture, FACS; assay type: cell-based, human
# Text: as §2, §3
# UMPS locus [3] = test: InDel frequency at end of culture; assay type: cell-based, human; details: UMPS knockout T cells not exposed to 5-FOA, with metabolite, day 8
# Text: To confirm the results on the genomic level, genomic DNA was harvested at the end of the experiment and InDels were quantified (FIG. 5D-FIG. 5E). FIG. 5D compares the frequency of InDels in different culture conditions for cells not exposed to 5-FOA.
# Mock edited T cells = test: Time course of cell counts with/without UMP or uridine; assay type: cell-based, human; details: with metabolite 250 μg/ml
# Experimental: (§4) Cells were cryopreserved in BAMBANKER™ medium. After thawing cells were cultured at 37° C., 5% CO2 in X-Vivo 15 (Lonza) supplemented with or without 5% human serum (Sigma-Aldrich) and […] human recombinant IL-2 (Peprotech) and 10 ng/ml human recombinant IL-7 (BD Biosciences). UMP or Uridine was added at 250 μg/ml. 5-FOA was added at 100 μg/ml to 1 mg/ml. During culture, medium was refreshed every 2 days.
# (§5) Genomic DNA was harvested using QUICKEXTRACT™ DNA Extraction Kit (Epicentre). Cells were counted on an automated cell counter using Trypan blue staining or on a CytoFLEX flow cytometer (Beckman Coulter) with automatic plate reader using COUNTBRIGHT™ beads (ThermoFisher) as a reference for normalizing the values. Alternatively, cells were analyzed after staining with fluorochrome-labelled antibodies (Biolegend) on an ACCURI™ C6 flow cytometer (BD Biosciences), which also measures volumes, or a FACS ARIA™ II SORP cell sorter (BD Biosciences). Data was analyzed using Excel (Microsoft) and FlowJo software (Tree Star).
# (§6) T Cells were electroporated and edited as in Example 2 and allowed to recover for a 4-day period in medium with serum, uridine, and UMP. On day 4, cells were shifted to UMP, uridine, or uracil source media.
# UMPS knockout T cells [4] = test: as above; assay type: cell-based, human; details: to the same level as mock edited cells
# Experimental: as §4, §5, §6
# CCR5 knockout T cells = test: as above; assay type: cell-based, human; details: with metabolite 250 μg/ml
# Experimental: as §4, §5, §6
# UMPS knockout T cells [5] = test: Cell counts over time after electroporation (Trypan blue); assay type: cell-based, human; details: supplemented at 250 μg/ml
# Text: To evaluate whether the UMPS knockout leads to differential cell proliferation if cultured without the addition of Uridine or Uridine monophosphate (UMP), the cell counts in culture were followed over time by automatic cell counting with Trypan blue staining. UMPS knockout led to lower cell counts from day 2 after electroporation, compared to cells that were mock electroporated or electroporated using Cas9 targeting a different genomic locus (i.e., CCR5) (FIG. 5B).
# In contrast, cell proliferation was not impaired after UMPS knockout if UMP or Uridine were supplemented at high concentrations (250 μg/ml each) (FIG. 5C).
# UMPS^KO/KO hESCs = test: Auxotrophy assay with different uridine concentrations; assay type: cell-based, human; details: 2.5-250 μg/ml uridine, day 4
# Experimental: The UMP S locus was disrupted in the hESCs by electroporation of Cas9 RNP and selection of a clone with InDels in exon 1 as evaluated by amplification and Sanger sequencing of the genomic locus. For gene editing, hESCs were treated with 10 μm ROCK inhibitor (Y-27632) for 24 hours before electroporation. Cells at 70-80% confluence were harvested with ACCUTASE® solution (Life Technologies). 500,000 cells were used per reaction with a SpCas9 concentration of 150 μg/mL (Integrated DNA Technologies) and a Cas9:sgRNA molar ratio of 1:3 and electroporation performed in P3 Primary Cell solution (Lonza) in 16-well NUCLEOCUVETTE™ Strips in the 4D NUCLEOFECTOR system (Lonza). Immediately after electroporation, cells were transferred into one well of a […]® protein mixture (Corning, Inc.)-coated 24 well plate containing 500 μl of mTeSR™ media ([…] Technologies) with 10 μM Y-27632. Media was changed 24 hours after editing and Y-27632 was removed 48 hours after.
# An auxotrophy assay was performed over four days with different concentrations of uridine. Microscope photos of wells were taken on day 4 after seeding UMPS^KO/KO hESCs at similar densities and culturing in the presence of different uridine concentrations. […] Quantification of viable cells on day 4 after seeding to evaluate the effect of different uridine concentrations is shown in Table 15.
# [6] = also broken down in the liver; cited from earlier work
# UMPS locus [7] = test: sgRNA activity screening, InDel quantification by ICE and ICE-D; assay type: cell-based, human; details: activated T cells, 4 days after electroporation with Cas9
# Text: sgRNAs were acquired with chemical modifications from Synthego Corporation. The sgRNAs were complexed with Cas9 protein (IDT) at a molar ration of 2.5:1 (sgRNA:protein) and electroporated into activated T cells using a 4D-NUCLEOFECTOR™ system (Lonza). 4 days later, cells were harvested, and genomic DNA extracted using QUICKEXTRACT™ DNA Extraction Kit (Epicentre) according to the manufacturer's protocol. The sgRNA target site was amplified with specific primers (Table 18) and the amplicon sequenced by Sanger sequencing (MCLab, South San Francisco).
# InDel quantification was performed on the sequences using the interference of CRISPR edits (ICE) and ICE-D online tools (ice.synthego.com) (FIG. 5A).
molecule,measurement,setting,value
"O=C(O)c1[nH]c(=O)[nH]c(=O)c1F [5-FOA, 5-fluoroorotic acid]",Average number of cells per volume unit,Mock T cells; No Serum,49125.44
same,Average number of cells per volume unit,Mock T cells; With Serum,63071.71
same,Average of cells per volume unit,Mock T cells; UMP,24770.99
same,Average of cells per volume unit,Mock T cells; Uridine,53052.43
same,Average number of cells per volume unit,UMPS-7 targeted T cells; No Serum,72385.14
same,Average number of cells per volume unit,UMPS-7 targeted T cells; With Serum,72181.87
same,Average of cells per volume unit,UMPS-7 targeted T cells; UMP,58299.26
same,Average of cells per volume unit,UMPS-7 targeted T cells; Uridine,77755.72
same,Proliferation of cells with UMP knockouts,[1]; 5-FOA 10 and 100 μg/ml,proliferated well
same,Cell growth of cells with UMP knockouts,[1]; highest 5-FOA concentration,slowed their cell growth down
same,Percent of UMPS^KO/KO cells in mixed cell population,"[2]; 5-FOA daily, Day 3",74.0%
same,wild-type cells among the cells (FACS),"[2]; 5-FOA only on the first day, Day 0",56.0%
same,UMPS-KO T cells among the cells (FACS),"[2]; 5-FOA supplemented daily, Day 3",74.0%
same,Sensitivity of UMPS-WT cells,UMPS^WT/WT cells (GFP−),sensitive
same,Tolerance of UMPS-KO cells,UMPS^KO/KO hESCs (GFP+); 5-FOA 0.25 μg/ml,tolerated
same,Proliferation of UMPS-KO cells,UMPS^KO/KO hESCs (GFP+); 5-FOA concentrations higher than 0.25 μg/ml,impaired proliferation
"O=c1ccn([C@@H]2O[C@H](COP(=O)(O)O)[C@@H](O)[C@H]2O)c(=O)[nH]1 [UMP, Uridine monophosphate]",Survival in 5-FOA compared to control,UMPS-7 targeted T cells,improved the survival
same,Frameshift InDel frequency,UMPS locus [3],46.1%
same,Overall InDel frequency,UMPS locus [3],71.1%
same,Cell density,Mock edited T cells; Day 4,3.80E+06 cells per ml
same,Cell density,Mock edited T cells; Day 8,3.90E+06 cells per ml
same,Growth of UMPS edited culture,UMPS knockout T cells [4],rescued the growth
same,Cell density,CCR5 knockout T cells; Day 2,1.80E+06 cells per ml
same,Cell density,CCR5 knockout T cells; Day 6,3.80E+06 cells per ml
same,Cell proliferation after UMPS knockout,UMPS knockout T cells [5],not impaired
"O=c1ccn([C@@H]2O[C@H](CO)[C@@H](O)[C@H]2O)c(=O)[nH]1 [Uridine, uridine]",Survival in 5-FOA compared to control,UMPS-7 targeted T cells,improved the survival
same,Frameshift InDel frequency,UMPS locus [3],52.5%
same,Overall InDel frequency,UMPS locus [3],77.0%
same,Cell density,Mock edited T cells; Day 4,3.90E+06 cells per ml
same,Growth of UMPS edited culture,UMPS knockout T cells [4],rescued the growth
same,Cell density,CCR5 knockout T cells; Day 4,3.70E+06 cells per ml
same,Proliferation (microscope photos),UMPS^KO/KO hESCs,proliferated
same,Cell proliferation after UMPS knockout,UMPS knockout T cells [5],not impaired
same,Absorption in the gastrointestinal tract,[6],poorly absorbed
B1,ICE InDels,UMPS locus [7],39%
same,ICE-D InDels,UMPS locus [7],93%
